Patent publication US7767803B2, “Stabilized aptamers to PSMA and their use as prostate cancer therapeutics” (Archemix Corp., priority 2002, dated 2010)

B1: GGGAGGACGAUGCGGACCGAAAAAGACCUGAfCfUfUfCfUAfUAfCfUAAGfUfCfUAf CGfUfUfCfCfCAGAfCGAfCfUfCGfCfCfCGA (nucleic acid)
chain: GGGAGGACGAUGCGGACCGAAAAAGACCUGACUUCUAUACUAAGUCUACGUUCCCAGACGACUCGCCCGA
modifications: listed as RNA, chemistry not fully specified
notes: existing PSMA specific aptamer of rRfY composition, described in U.S. Ser. No. 09/978,969

What was measured:
[1] = target: PSMA NAALADase activity (Homo sapiens, UniProt Q04609); experiment: NAALADase inhibition assay; format: biochemical; details: relative to parent aptamer
Sequence of PSMA NAALADase activity (Q04609 with tags, fused parts or gaps limits assumed): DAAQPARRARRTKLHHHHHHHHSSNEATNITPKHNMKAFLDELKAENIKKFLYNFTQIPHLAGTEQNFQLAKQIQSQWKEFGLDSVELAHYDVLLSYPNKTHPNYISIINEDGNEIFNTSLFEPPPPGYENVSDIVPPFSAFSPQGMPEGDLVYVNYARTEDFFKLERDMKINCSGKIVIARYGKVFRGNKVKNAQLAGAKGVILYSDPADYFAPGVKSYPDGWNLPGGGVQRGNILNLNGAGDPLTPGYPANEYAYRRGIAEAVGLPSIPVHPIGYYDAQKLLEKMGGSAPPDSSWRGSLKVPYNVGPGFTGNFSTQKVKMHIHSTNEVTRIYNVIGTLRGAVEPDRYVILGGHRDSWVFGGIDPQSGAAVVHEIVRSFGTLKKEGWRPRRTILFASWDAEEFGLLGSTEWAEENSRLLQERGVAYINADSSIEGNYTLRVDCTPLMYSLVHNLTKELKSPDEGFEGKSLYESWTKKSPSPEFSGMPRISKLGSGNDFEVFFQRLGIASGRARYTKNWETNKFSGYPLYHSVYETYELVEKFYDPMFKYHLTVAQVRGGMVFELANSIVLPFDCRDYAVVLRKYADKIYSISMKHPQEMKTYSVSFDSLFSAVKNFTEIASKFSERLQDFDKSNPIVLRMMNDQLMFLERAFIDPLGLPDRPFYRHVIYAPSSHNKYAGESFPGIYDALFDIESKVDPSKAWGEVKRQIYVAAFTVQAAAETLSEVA
Protocol: These point mutant constructs were assessed for activity in terms of inhibition of PSMA NAALADase activity. The NAALADase assay was performed in 96 well format. PSMA aptamers were serially diluted in 1× reaction buffer (40 mM Tris-HCl, pH 7.4, 0.1 mM ZnSO4, 0.1 mg/mL BSA) in a standard 96 well plate to be tested at a final concentration range from 30 pM to 1 μM. The enzyme was prepared by diluting 30 μL of 100 nM PSMA into 8 mL of reaction buffer, and kept cool on ice. The substrate was prepared by adding 19 μl of NAAG [Glutamate-3,4-^3H], 50.8 Ci/mmol, 19.7 μM (Perkin-Elmer, Wellesley, Mass., NET1082) into 2.2 mL of reaction buffer.
Following preparation of all reagents, 4 μl of each serially diluted aptamer was added to a separate 96 well plate (the reaction plate). 76 μl of diluted enzyme was added to the corresponding wells containing aptamer. 80 μl of reaction buffer was added to one column of wells to serve as a background control. The diluted substrate and reaction plate were then moved to a room at 37° C. and allowed to equilibrate for 10 minutes. […]
To separate the cleavage products, […] and Glutamate, from the substrate, an AG 1-×8, 200-400 mesh, formate resin (BioRad, Hercules, Calif., # 140-1454) was used. […] The plate was sealed and read using a Packard Topcount Microplate Scintillation Counter. […]

[2] = tested on: LNCaP cells (PSMA+); experiment: LNCaP FACS assay with fluorescein-labeled aptamers; format: cell-based
Text: The parent A9 aptamer sequence (SEQ ID NO 168) is predicted by the MFOLD algorithm implemented in the RNAStructure program v. 4.11 to fold into a partially mismatched hairpin that encompasses almost the entire molecule. A series of truncated constructs were designed, in which self-pairing nucleotides from the 5′- and 3′-ends were simultaneously removed, chemically synthesized using conventional solid-phase phosphoramidite-based synthesis, and tested. In the design of some of the truncated A9 aptamers, see e.g. ARC591, additional bases were added to the 3′ and 5′ ends of the truncate, where the bases added to the 5′ end were capable of forming Watson-Crick base pairs with those added to the 3′ end thereby increasing the length of stem structure. Truncated aptamers were 5′-labeled with fluorescein and tested for binding in to LNCaP cells (PSMA+) in the FACS assay described below. PC-3 cells (PSMA−) were used as a control cell line. The sequences of the truncated A9 aptamers designed are listed below in Table 6 below.
To accomplish 5′-fluorescein labeling, aptamers were synthesized with a 5′-amine and then modified post-solid phase synthesis. The required aptamer was dissolved to a concentration of ˜10-50 mg/mL in 25 mM phosphate buffer, pH 7.4. The small molecule, NHS ester of fluorescein, was dissolved to a concentration of 10 mg/mL in DMSO. 1.5 Molar equivalents were added to the aptamer and the solution vortexed for ˜15 seconds. The reaction was allowed to proceed in the dark at room temperature for 1 hour and then a 5 μL aliquot was withdrawn, diluted with water and analyzed by HPLC. Additional equivalents of the small molecule were added until the reaction was complete by HPLC. Excess small molecules were removed by gel filtration.
To prepare aptamers for the FACS assay, PSMA aptamers were serially diluted (0-1 uM) in FACS buffer (1×DPBS w/Ca^++/Mg^++ (Gibco, Carlsbad, Calif.) supplemented with 10 mg/mL salmon sperm DNA & 0.2% Na Azide), in a V-bottom 96 well plate, at the concentrations to be tested. LNCaP and PC-3 cells (ATCC, Manassas, Va.) were harvested with trypsin, and 200,000 cells/well were counted, washed once with 1×DPBS (with Ca^++ and Mg^++) and resuspended in 200 μl of FACS Buffer. The 200 μl of cells in FACS buffer were added to individual wells of a new 96 well plate, pelleted by centrifugation (1300 rpm for 5 minutes), and resuspended in 100 μl of the appropriate concentration of diluted aptamer. FACS buffer, c-PSMA antibody (3C6) (Northwest Biotherapeutics, Bothell, Wash., Cat #: 60-5002) and an irrelevant fluorescein isothiocyanate (“FITC”) mouse IgG1 isotype control antibody (BD Pharmingen, San Diego, Calif., Cat#: 554679) were used as controls. The wells of aptamer/cell mixture were incubated at room temperature for 20-30 minutes. […]

[3] = tested on: metastatic, androgen independent prostate cancer; details: docetaxel in combination with prednisone, given every three weeks; control mitoxantrone and prednisone; cited from earlier work
[4] = tested on: PC-3 cells (PSMA−); experiment: FACS assay on control cell line; format: cell-based
Text: The parent A9 aptamer sequence (SEQ ID NO 168) is predicted by the MFOLD algorithm implemented in the RNAStructure program v. 4.11 to fold into a partially mismatched hairpin that encompasses almost the entire molecule. A series of truncated constructs were designed, in which self-pairing nucleotides from the 5′- and 3′-ends were simultaneously removed, chemically synthesized using conventional solid-phase phosphoramidite-based synthesis, and tested. […]
To prepare aptamers for the FACS assay, PSMA aptamers were serially diluted (0-1 uM) in FACS buffer (1×DPBS w/Ca^++/Mg^++ (Gibco, Carlsbad, Calif.) supplemented with 10 mg/mL salmon sperm DNA & 0.2% Na Azide), in a V-bottom 96 well plate, at the concentrations to be tested. LNCaP and PC-3 cells (ATCC, Manassas, Va.) were harvested with trypsin, and 200,000 cells/well were counted, washed once with 1×DPBS (with Ca^++ and Mg^++) and resuspended in 200 μl of FACS Buffer. […]
Cell samples were analyzed on a FACS Scan machine (Becton Dickinson, San Jose, Calif.) under the following parameters: FSC/SSC, FL-1/FSC, FL-3/FSC. The unstained and/or isotype controls were used to establish gating parameters, and the data was analyzed using Cell Quest Pro software version 5.1.1 (Becton Dickinson Immunocytometry Systems, San Jose, Calif.).

Molecule | NAALADase inhibition activity (in words) [1] | binding to LNCaP (PSMA+) cells by FACS (in words) [2] | survival advantage over the control group [3] | binding to PC-3 (PSMA−) cells by FACS (in words) [4]
GGAGGACCGAAAAAGACCUGACUUCUAUACUAAGUCUACGUUCCUCCA (2'-fluoro pyrimidines, further chemistry not given here) [ARC591, 48-nt minimer of A9, 2′-OH purines, 2′-fluoro pyrimidines] | retained full functional activity | retained full functional activity |  | 
CC(=O)O[C@@]12CO[C@@H]1C[C@H](O)[C@@]1(C)C(=O)[C@H](O)C3=C(C)[C@@H](OC(=O)[C@H](O)[C@@H](NC(=O)OC(C)(C)C)c4ccccc4)C[C@@](O)([C@@H](OC(=O)c4ccccc4)[C@H]21)C3(C)C [Taxotere, docetaxel] |  |  | approximately 2.5 months | 
B1 |  | binding to LNCaP (PSMA+) cells |  | not to PC-3 (PSMA−) cells
